Source: patent US20070298108A1, “Pharmaceutical Formulation” (priority 2004, published 2007)

Key:
[1] = Vial study: influence of humidity in a closed container on binary mixtures of losartan potassium form X; type: physicochemical
Description: Storage conditions: Vial study—influence of humidity in a closed container (simulation of packaging)
Testing mixtures are put into vials, exposed to 60% humidity for 18 hours, then closed with rubber stoppers and stored in a thermostatically controlled chamber at temperature of 25° C. (±2° C.) and 60% (±5%) relative humidity.
(§1) Mixtures are tested for up to 5 days in open petri dishes and up to 4 and 9 days in vials, and the following parameters were analysed at intervals of a few days or until the occurrence of significant change: appearance, […], conversion of a polymorph form (detected using powder X-ray diffraction spectroscopy and expressed as the amount of crystalline or amorphous phase different from the starting polymorph).

[2] = Open dish study: constant influence of humidity on binary mixtures of losartan potassium form X; type: physicochemical; conditions: 5 days, 25° C., 60% relative humidity
Description: Storage conditions: Open dish study—constant influence of humidity Testing mixtures are put into open petri dishes and stored in a thermostatically controlled chamber at a temperature of 25° C. (±2° C.) and 60% (±5%) relative humidity
as §1

[3] = vial, 4 days, exposed to 60% humidity 18 hours, closed, 25° C., 60% relative humidity
[4] = vial, 9 days, exposed to 60% humidity 18 hours, closed, 25° C., 60% relative humidity

Appearance ([1]; Initial state): white powder | Form conversion (amount of crystalline or amorphous phase different from the starting polymorph, XRPD) ([1]; Initial state): 0% | Loss on drying ([1]; Initial state): 0.08% | Appearance [1, 3]: white slightly | Form conversion (amount of crystalline or amorphous phase different from the starting polymorph, XRPD) [1, 3]: 5% | Loss on drying [1, 3]: 0.52% | Appearance [1, 4]: white slightly | Form conversion (amount of crystalline or amorphous phase different from the starting polymorph, XRPD) [1, 4]: 100% | Appearance [2]: white slightly | Form conversion (amount of crystalline or amorphous phase different from the starting polymorph, XRPD) [2]: 10% | Loss on drying [2]: 0.93%
SMILES: CCCCc1nc(Cl)c(CO)n1Cc1ccc(-c2ccccc2-c2nnn[n-]2)cc1.[K+] [Not stabilized API, potassium salt of losartan]
